This note sets out measurements from US20030225123A1, “Antihypertensive agents and use” (priority 2003, published 2003).

Assay [1] concerns spontaneously hypertensive rats (SHR). Nature of the assay: Antihypertensive effect (MABP by radiotelemetry) of CI-1027, quinapril and their combination in SHR (Example 1). Type of assay: in vivo, rat. Here is the method:
The antihypertensive effects of the carboxyalkylether compound of Formula III (CI-1027), alone and in combination with an antihypertensive agent such as quinapril (CI-906), were evaluated in rats according to the following protocol. Male spontaneously hypertensive rats (SHR, 15-20 weeks old, Charles River Laboratories, Wilmington, Mass.) were prepared with indwelling aortic catheters and radiotransmitters (Data Sciences International, Saint Paul, Minn.). The radiotransmitters provided continuous measurement of aortic blood pressure waveform. From the aortic blood pressure waveform a Ponemah (Gould Instruments Inc, Valley View, Ohio) computer provided mean arterial blood pressure (MABP) and heart rate values continuously as one-minute averages. One-minute data was then summarized at 15-minute intervals using Excel (Microsoft Corporation, Redmond, Wash.) spreadsheets. Animals were allowed food and water ad libitum. To allow for recovery following surgery, rats were not dosed for a minimum of 7 days. Day 0 predose blood pressures were obtained by averaging eight 15-minute MABP measurements made 2 hours before dosing. To obtain the peak response to treatment (Days 0, 12, 16, 19, and 22), the 15-minute MABP measurements in the interval between 2 and 4 hours post-dose were averaged. Test compounds were given in a vehicle that contained 96% water, 3% carbomethocellulose (Sigma Chemical, Saint Louis, Mo.) and 1% tween […] (polyoxyethylenesorbitan monooleate, Sigma Chemical). CI-1027 and quinapril monotherapy were administered at 8:30 AM daily by oral gavage in a volume of 2 mL/kg. The combination of CI-1027 and quinapril was given as a single gavage in a volume of 2 mL/kg. The experiment was carried out over 22 days in 4 groups of animals. Group I served as a control and received 2 mL/kg/day of vehicle for 22 consecutive days. Group II, used to determine the antihypertensive response to quinapril monotherapy, was given vehicle for the first 12 to 13 consecutive days. Then on Day 13 to 14 quinapril was added at a dose of 0.3 mg/kg/day for 3 to 4 consecutive days; the dose was then increased to 1 mg/kg/day for the next 3 days, and on the final 3 days, 3 mg/kg/day was administered. To determine the response to CI-1027 monotherapy, Groups III and IV received 12-day treatment with CI-1027 monotherapy at doses of 30 and 100 mg/kg/day, respectively. To determine the antihypertensive response to the combination therapy quinapril, was added to the ongoing CI-1027 treatment (Day 13-14) using the rising dose protocol described for Group II (quinapril monotherapy). [table]

The next assay deals with SHR. Nature of the assay: Antihypertensive effect (MABP by radiotelemetry) of CI-1027, amlodipine and their combination in SHR (Example 2). Type of assay: in vivo, rat. Here is the method:
The general procedure of Example 1 was followed to evaluate the antihypertensive efficacy of the carboxyalkylether CI-1027 alone and in combination with the calcium channel blocker amlodipine.
Male SHR (15-20 weeks old, Charles River Laboratories) were prepared with indwelling aortic catheters and radiotransmitters for continuous measurement of arterial blood pressure and heart rate. Animals were allowed food and water ad libitum. Before dosing all rats were given a minimum of 7 days for recovery from surgery.
The experiment was carried out over 22 days in 3 groups of SHR. Group I served as a control and received 2 mL/kg/day of vehicle (same as in Example 1) for 22 consecutive days. Group II, used to determined the antihypertensive response to amlodipine monotherapy, was given vehicle for the first 13 consecutive days. Then on Day 14, amlodipine was added at a dose of 0.3 mg/kg/day for 3 consecutive days. The dose was then increased to 1 mg/kg/day for the next 3 days, and on the final 3 days, 3 mg/kg/day was given. To determine the response to CI-1027 monotherapy, Group III received a 13-day treatment with CI-1027 monotherapy at a dose of 30 mg/kg/day. The antihypertensive response to the combination therapy was determined by the addition of amlodipine to ongoing CI-1027 treatment on Day 14.
Drugs were suspended or dissolved in vehicle that contains 96% water, 3% carboxymethocellulose, and 1% tween 88. Compounds were given at 9 AM daily by oral gavage in a volume of 2 mL/kg. The combination of CI-1027 and amlodipine was given as a single gavage in a volume of 2 mL/kg.

Values joined by “and” are separate entries in the source; they are usually repeats but may differ in a detail not shown here. Equal values may be shown once.

With `CCOC(=O)[C@H](CCc1ccccc1)N[C@@H](C)C(=O)N1Cc2ccccc2C[C@H]1C(=O)O` [Quinapril, quinapril], the “Peak MABP” value in assay [1] (Quinapril 0.3 mg/kg/day oral, Day 16, 2-4 h postdose) was 122 ± 5 mm Hg; in assay [1] (Quinapril 1 mg/kg/day oral, Day 19, 2-4 h postdose), 121 ± 4 mm Hg; in assay [1] (Quinapril 3 mg/kg/day oral, Day 22, 2-4 h postdose) it was 117 mm Hg and 117 ± 4 mm Hg. Also, in assay [1] (Quinapril monotherapy, rising dose), the “Antihypertensive response at 3 mg/kg/day greater than at 0.3 mg/kg/day” value is listed as 5 mm Hg.
Take `CCOC(=O)C1=C(COCCN)NC(C)=C(C(=O)OC)C1c1ccccc1Cl` (stereo not drawn) [Amlodipine, amlodipine]: the “Peak MABP” value was 140 ± 6 mm Hg in the assay on SHR (Amlodipine 0.3 mg/kg/day oral, Day 16, 4-6 h postdose); 131 ± 5 mm Hg in the assay on SHR (Amlodipine 1 mg/kg/day oral, Day 19, 4-6 h postdose); 114 mm Hg and 114 ± 5 mm Hg with SHR (Amlodipine 3 mg/kg/day oral, Day 22, 4-6 h postdose). The Threshold antihypertensive dose with SHR (amlodipine monotherapy (Group II), oral) was 1 mg/kg/day.
`CC(C)(CCCCOCCCCC(C)(C)C(=O)O)C(=O)O` [CI-1027]: the “Peak MABP” value in assay [1] (CI-1027 30 mg/kg/day oral, Day 0, 2-4 h postdose) is 145 ± 4 mm Hg; in assay [1] (CI-1027 30 mg/kg/day oral, Day 12, 2-4 h postdose, 30 mg/kg/day) it was 131 mm Hg and 131 ± 3 mm Hg; in assay [1] (CI-1027 100 mg/kg/day oral, Day 0, 2-4 h postdose) it was 141 ± 4 mm Hg; in the assay with SHR (CI-1027 30 mg/kg/day oral, Day 0, 4-6 h postdose), 129 ± 4 mm Hg; in the assay on SHR (CI-1027 30 mg/kg/day oral, Day 13, 4-6 h postdose, 30 mg/kg/day), 120 mm Hg and 120 ± 8 mm Hg. Also, in assay [1] (CI-1027 monotherapy 30 and 100 mg/kg/day, 12 days), the “Antihypertensive activity of monotherapy” value is “modest antihypertensive activity”. Further, the “Effect of monotherapy on blood pressure” value with SHR (CI-1027 monotherapy 30 mg/kg/day, 13 days) is “lowers blood pressure in the SHR”.
